# The source made the active and inactive calls.
# How the values were obtained:
# [1] = NIH3T3 cell viability loss – ATP luminescence, mouse fibroblasts, counter-screen, dose response (AID 2010); assay type: functional, cell-based;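 further: cells exposed to compound for about 90 hours before reading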
# [2] = molecular target: T1, Serine/threonine-protein phosphatase (Candida dubliniensis (strain CD36 / CBS 7987 / NCPF 3949 / NRRLY-17841) (Yeast), UniProt B9W6M3); test: blockers of CaCl2-induced CDRE-lacZ signaling – S. cerevisiae, luminescence, secondary, dose response (AID 2388); assay type: functional, cell-based;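 further: yeast reporter cells carrying a calcineurin-responsive lacZ construct stimulated with calcium chloride; luminescent beta-galactosidase reporter signal in whole cells rather than isolated phosphatase activity; potency for inhibition where a drop in reporter signal means calcineurin blockade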
# T1 sequence (B9W6M3 whole entry): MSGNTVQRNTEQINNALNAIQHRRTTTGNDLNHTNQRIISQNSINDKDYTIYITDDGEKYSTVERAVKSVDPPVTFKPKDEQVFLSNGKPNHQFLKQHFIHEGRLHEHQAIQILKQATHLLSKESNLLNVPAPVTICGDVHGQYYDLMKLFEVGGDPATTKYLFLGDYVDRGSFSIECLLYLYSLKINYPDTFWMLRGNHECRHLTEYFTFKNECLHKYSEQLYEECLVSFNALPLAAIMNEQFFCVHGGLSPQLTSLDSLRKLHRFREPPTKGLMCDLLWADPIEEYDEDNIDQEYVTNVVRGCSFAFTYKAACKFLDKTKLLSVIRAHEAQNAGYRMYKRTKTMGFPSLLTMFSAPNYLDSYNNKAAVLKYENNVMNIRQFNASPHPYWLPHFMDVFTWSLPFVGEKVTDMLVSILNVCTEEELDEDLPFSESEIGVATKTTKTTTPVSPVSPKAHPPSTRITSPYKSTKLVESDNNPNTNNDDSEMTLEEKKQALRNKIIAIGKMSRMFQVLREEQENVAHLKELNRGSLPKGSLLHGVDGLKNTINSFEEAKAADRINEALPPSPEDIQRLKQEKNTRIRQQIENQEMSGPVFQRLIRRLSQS
# [3] = NIH-3T3 fibroblast cytotoxicity, dose response, cytotoxicity control, cell-based, fluorescence, Alamar Blue, secondary assay (AID 2327); assay type: functional;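 further: NIH-3T3 mouse fibroblasts cultured with fluconazole at 8 µg/mL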
# INS1 = test: INS-1E survival protection against cytokine death – cell-based, luminescence, retest, dose response (AID 449756); assay type: functional; conditions: Rattus norvegicus;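 further: cell death triggered by IL-1 beta plus TNF-alpha plus IFN-gamma mixture; protective hits raise ATP signal compared with cytokine alone wells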
# Streptococcus = test: GAS UMAA2166 growth inhibition – luminescence, BacTiterGlo, counter-screen for streptokinase expression inhibitor project, dose response (AID 1915); assay type: functional, organism-based;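 further: potency for reduction of bacterial viability or growth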
# [4] = molecular target: ATP-dependent molecular chaperone HSP82 (Candida albicans (strain WO-1) (Yeast), UniProt C4YTQ8); test: steroid-induced GRE reporter decrease in yeast – S. cerevisiae, luminescence, Hsp90 inhibitor project, dose response (AID 2400); assay type: functional, cell-based;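 further: beta-galactosidase luminescence from glucocorticoid response element reporter as proxy for Hsp90 function; inhibitor potency where signal loss means Hsp90 inhibition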
# ATP-dependent molecular chaperone HSP82, sequence (C4YTQ8 whole entry): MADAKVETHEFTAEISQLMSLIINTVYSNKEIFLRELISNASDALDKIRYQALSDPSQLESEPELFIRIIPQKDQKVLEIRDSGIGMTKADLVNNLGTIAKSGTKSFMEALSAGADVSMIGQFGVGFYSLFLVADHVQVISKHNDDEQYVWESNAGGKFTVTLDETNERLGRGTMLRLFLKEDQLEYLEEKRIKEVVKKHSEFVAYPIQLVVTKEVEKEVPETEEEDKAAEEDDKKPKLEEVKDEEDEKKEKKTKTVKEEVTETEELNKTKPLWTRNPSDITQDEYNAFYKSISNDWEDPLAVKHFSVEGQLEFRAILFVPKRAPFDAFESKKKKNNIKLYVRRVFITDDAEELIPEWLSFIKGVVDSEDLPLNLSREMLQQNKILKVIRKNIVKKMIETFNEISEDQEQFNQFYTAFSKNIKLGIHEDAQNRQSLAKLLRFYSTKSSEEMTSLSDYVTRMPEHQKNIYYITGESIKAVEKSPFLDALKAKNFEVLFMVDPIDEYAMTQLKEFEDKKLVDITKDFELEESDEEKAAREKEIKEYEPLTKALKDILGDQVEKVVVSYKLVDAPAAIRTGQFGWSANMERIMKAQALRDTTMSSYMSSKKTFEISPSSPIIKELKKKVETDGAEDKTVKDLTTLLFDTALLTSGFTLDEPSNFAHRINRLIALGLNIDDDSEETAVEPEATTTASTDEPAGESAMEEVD
# [5] = test system: Streptococcus sp. 'group A'; test: Streptococcus pyogenes SK(-)GAS viability under kanamycin – luminescence, BacTiterGlo, confirmation, counter-screen for streptokinase expression inhibitor project, dose response (AID 1900); assay type: functional, organism-based
# [6] = molecular target: T1, Serine/threonine-protein phosphatase; test: Fluorescence Cell-Based Secondary Assay to Identify Inhibitors of Calcineurin. [Related pubchem assays (depositor defined):AID1979, AID2007]; assay type: functional
# [7] = microbe, parasite or virus in culture; assay type: functional; conditions: Mycobacterium tuberculosis
# [8] = Trypanosoma cruzi growth suppression in host cells – NIH3T3 host cells, beta-gal luminescence, confirmation (AID 2044); assay type: functional, cell-based;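 further: intracellular parasites grown in NIH/3T3 mouse fibroblasts as host cells; luminescent beta-galactosidase reporter signal from transgenic T. cruzi replicating inside host cells; inhibitors lower the luminescence signal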
# Vero = test: cells; assay type: functional; conditions: Chlorocebus sabaeus
# [9] = fluconazole-exposed Candida albicans growth modulators – fluorescence, retest, confirmation (AID 2467); assay type: functional, cell-based
# [10] = molecular target: Heat shock protein HSP 90-alpha (Homo sapiens, UniProt P07900); assay type: functional, organism-based
# HeLa = test: viability loss in HeLa cells – cell-based, 24 h, cherry-picked samples, cytotoxicity control, dose response (AID 504726); assay type: functional; conditions: Homo sapiens;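 further: potency for cytotoxicity as loss of luminescence signal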
# [11] = molecular target: T2, Endoribonuclease toxin MazF (Escherichia coli K-12, UniProt P0AE70); test: substrate-only fluorescence increase artefacts – biochemical, single-stranded RNase substrate, counter-screen for MazEF activator project, dose response (AID 588502); assay type: functional
# T2 sequence (P0AE70 whole entry): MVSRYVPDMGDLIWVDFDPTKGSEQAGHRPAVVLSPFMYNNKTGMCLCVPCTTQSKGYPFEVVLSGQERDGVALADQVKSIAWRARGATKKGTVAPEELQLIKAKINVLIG
# ORF 73 = molecular target: T3, ORF 73 (Human herpesvirus 8, UniProt O40947); test: KSHV LANA DNA-binding disruption – biochemical, fluorescence polarization, cherry-picked samples, dose response (AID 504725); parameters: species or system Human gammaherpesvirus 8;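 further: fluorescence polarization of a labeled DNA duplex reporting LANA DNA binding; potency is for inhibitors that block LANA binding to the DNA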
# T3 sequence (O40947 whole entry): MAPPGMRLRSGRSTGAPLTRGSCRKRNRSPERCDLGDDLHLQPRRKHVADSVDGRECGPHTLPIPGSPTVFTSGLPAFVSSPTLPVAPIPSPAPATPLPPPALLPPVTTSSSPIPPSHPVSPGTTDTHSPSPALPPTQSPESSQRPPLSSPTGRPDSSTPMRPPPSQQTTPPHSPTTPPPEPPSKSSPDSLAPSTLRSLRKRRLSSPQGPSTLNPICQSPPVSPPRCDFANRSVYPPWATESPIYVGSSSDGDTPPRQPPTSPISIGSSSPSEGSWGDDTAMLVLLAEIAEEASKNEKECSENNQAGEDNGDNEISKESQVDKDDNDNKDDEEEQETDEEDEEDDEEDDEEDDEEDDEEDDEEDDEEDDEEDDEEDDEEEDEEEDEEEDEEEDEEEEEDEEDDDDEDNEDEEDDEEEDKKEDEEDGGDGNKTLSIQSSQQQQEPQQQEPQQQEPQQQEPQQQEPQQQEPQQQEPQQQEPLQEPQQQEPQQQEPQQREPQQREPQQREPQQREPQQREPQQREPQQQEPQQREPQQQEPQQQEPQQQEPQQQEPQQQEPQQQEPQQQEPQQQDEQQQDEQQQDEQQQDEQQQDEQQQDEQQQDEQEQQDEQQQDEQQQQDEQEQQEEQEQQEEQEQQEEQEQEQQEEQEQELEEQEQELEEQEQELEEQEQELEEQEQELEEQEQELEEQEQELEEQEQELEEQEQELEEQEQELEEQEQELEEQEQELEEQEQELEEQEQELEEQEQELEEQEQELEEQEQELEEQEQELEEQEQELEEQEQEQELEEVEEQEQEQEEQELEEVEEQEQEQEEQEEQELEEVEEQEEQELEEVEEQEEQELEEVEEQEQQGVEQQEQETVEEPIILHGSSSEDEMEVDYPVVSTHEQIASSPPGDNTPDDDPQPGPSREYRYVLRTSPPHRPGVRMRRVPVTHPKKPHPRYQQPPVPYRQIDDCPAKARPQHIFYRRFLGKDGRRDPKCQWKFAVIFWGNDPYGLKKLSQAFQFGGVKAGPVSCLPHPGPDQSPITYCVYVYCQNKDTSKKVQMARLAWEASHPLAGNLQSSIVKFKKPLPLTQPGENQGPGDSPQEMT
# [12] = molecular target: T2, Endoribonuclease toxin MazF; test: activation of MazEF endoribonuclease cleavage – biochemical, fluorescence, single-stranded RNA substrate, uHTS hits, dose response (AID 588481); assay type: functional
# [13] = molecular target: UDP-galactopyranose mutase (Mycobacterium tuberculosis, UniProt P9WIQ1); test: Inhibitors of Mycobacterium tuberculosis UDP-galactopyranose mutase (UGM) enzyme Measured in Biochemical System Using Plate Reader - 2105-02_Inhibitor_Dose_CherryPick_Activity. [Related pubchem assays (depositor defined):AID504439]
# UDP-galactopyranose mutase, sequence (P9WIQ1 whole entry): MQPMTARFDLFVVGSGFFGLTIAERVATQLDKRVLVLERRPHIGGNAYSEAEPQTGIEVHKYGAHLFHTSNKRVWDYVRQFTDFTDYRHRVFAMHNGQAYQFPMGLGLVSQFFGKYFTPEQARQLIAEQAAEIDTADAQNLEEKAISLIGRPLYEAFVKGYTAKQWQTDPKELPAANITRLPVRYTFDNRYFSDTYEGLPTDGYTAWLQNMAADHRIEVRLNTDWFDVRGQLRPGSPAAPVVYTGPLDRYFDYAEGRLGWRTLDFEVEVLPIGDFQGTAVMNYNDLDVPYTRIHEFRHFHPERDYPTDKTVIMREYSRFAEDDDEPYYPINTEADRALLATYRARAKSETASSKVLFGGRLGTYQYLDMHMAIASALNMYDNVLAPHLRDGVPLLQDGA
# Keap1/Nrf2 = Keap1/Nrf2 (Homo sapiens, UniProt Q14145); test: disruptors of Keap1 binding to Nrf2 peptide – biochemical, fluorescence polarization, cherry-picked samples, dose response (AID 588683)
# Keap1/Nrf2, sequence (Q16236 whole entry): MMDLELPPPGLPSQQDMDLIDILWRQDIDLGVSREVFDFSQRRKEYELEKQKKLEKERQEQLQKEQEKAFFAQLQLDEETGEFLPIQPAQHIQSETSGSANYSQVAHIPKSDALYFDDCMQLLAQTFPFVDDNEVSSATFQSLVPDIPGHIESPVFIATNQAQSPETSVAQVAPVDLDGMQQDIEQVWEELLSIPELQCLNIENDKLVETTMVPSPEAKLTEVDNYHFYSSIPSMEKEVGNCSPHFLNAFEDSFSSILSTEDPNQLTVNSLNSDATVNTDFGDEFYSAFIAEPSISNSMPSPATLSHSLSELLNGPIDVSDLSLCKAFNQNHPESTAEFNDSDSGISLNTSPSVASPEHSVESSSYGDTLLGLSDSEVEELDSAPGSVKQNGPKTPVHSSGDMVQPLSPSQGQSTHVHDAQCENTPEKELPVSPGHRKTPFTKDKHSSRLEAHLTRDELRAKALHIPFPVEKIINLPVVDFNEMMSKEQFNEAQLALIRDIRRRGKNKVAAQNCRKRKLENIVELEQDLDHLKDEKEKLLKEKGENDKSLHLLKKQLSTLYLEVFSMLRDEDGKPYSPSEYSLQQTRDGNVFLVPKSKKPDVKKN
# Keap1/Nrf2, sequence (Q14145 whole entry): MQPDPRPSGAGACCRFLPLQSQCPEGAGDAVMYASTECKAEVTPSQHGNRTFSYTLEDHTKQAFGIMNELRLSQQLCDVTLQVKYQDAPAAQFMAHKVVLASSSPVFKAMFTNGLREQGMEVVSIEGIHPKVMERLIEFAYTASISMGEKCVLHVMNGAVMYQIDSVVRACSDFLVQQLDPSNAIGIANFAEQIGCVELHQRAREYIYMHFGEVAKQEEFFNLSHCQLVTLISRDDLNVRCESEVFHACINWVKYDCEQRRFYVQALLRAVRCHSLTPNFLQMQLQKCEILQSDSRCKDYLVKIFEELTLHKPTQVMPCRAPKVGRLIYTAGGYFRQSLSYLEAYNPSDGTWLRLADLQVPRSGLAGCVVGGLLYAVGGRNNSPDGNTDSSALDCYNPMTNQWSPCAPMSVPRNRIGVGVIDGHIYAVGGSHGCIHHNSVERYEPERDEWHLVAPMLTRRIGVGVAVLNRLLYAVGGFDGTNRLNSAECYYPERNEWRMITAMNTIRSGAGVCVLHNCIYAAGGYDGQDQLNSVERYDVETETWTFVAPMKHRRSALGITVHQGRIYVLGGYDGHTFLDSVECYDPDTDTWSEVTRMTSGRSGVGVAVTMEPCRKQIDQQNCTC
# Jurkat [14] = test: SAR Analysis of small molecule inhibitors of […] specific antigen receptor-induced NF-kB activation in a Jurkat cell line using a luminescence assay - Set 3. [Related pubchem assays (depositor defined):AID435022, AID435025, AID465]; assay type: functional, cell-based; conditions: Homo sapiens
# HEK293 [15] = test: HEK293T cell viability loss, resazurin readout – resazurin fluorescence, cytotoxicity control for NF-kB activator project, SAR follow-up (AID 493251); assay type: functional, cell-based; conditions: Homo sapiens
# HEK293 [16] = test: SAR Analysis of small molecule inhibitors of B-cell specific antigen receptor-induced NF-kB activation in a HEK-293T cell line using a luminescence assay - Set 2. [Related pubchem assays (depositor defined):AID435022, AID435025, AID489021]; assay type: functional, cell-based; conditions: Homo sapiens
# Jurkat [17] = test: blockers of NF-kB activation in T cells – Jurkat, luciferase reporter, luminescence, B- and T-cell, dose response (AID 489004); assay type: functional, cell-based; conditions: Homo sapiens;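 further: NF-kB luciferase reporter Jurkat cells stimulated with PMA plus ionomycin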
# [18] = molecular target: G-protein coupled receptor 55 (Homo sapiens, UniProt Q9Y2T6); test: inhibition of LPI-stimulated GPR55 beta-arrestin translocation – imaging, U2OS, beta-arrestin-GFP, LPI agonist, primary screen (AID 2013); assay type: functional;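 further: antagonist potency measured as reduced agonist-driven arrestin aggregation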
# G-protein coupled receptor 55, sequence (Q9Y2T6 whole entry): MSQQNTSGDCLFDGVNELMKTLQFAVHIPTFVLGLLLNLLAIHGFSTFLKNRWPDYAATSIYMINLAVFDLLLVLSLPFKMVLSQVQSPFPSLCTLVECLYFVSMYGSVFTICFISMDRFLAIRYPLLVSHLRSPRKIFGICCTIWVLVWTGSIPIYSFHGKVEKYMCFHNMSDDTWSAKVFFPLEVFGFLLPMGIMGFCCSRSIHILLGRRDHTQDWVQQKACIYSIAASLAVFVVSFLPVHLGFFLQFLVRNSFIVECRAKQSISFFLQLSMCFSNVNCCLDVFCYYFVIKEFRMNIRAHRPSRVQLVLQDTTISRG
# [19] = molecular target: T4, Type-1 angiotensin II receptor (Homo sapiens, UniProt P30556); test: antagonism of angiotensin II type 1 receptor – cell-based, uHTS hits, selectivity assay for APJ receptor antagonist project, dose response (AID 463214); assay type: functional;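 further: antagonist potency against angiotensin II stimulated AT1 response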
# T4 sequence (P30556 whole entry): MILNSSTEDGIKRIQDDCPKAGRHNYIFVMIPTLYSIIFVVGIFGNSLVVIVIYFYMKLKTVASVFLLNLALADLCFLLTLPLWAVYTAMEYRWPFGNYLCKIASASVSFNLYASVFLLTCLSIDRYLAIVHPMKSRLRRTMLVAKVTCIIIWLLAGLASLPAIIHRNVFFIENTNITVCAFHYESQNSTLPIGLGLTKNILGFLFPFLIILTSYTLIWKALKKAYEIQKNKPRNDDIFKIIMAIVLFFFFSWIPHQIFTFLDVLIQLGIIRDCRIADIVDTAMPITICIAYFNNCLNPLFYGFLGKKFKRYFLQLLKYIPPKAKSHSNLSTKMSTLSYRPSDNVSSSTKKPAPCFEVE
# [20] = molecular target: E3 ubiquitin-protein ligase Mdm2 (Homo sapiens, UniProt Q00987); test: MDM2-luc reporter signal enhancers, multi-concentration potency testing, MDM2 ubiquitin-protein ligase inhibitor program, whole-cell format, luminescence detection, 384-well microplate (AID 1394); assay type: functional;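 further: MDM2 E3 inhibitors raise luminescence so EC50 is for signal enhancement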
# E3 ubiquitin-protein ligase Mdm2, sequence (Q00987 whole entry): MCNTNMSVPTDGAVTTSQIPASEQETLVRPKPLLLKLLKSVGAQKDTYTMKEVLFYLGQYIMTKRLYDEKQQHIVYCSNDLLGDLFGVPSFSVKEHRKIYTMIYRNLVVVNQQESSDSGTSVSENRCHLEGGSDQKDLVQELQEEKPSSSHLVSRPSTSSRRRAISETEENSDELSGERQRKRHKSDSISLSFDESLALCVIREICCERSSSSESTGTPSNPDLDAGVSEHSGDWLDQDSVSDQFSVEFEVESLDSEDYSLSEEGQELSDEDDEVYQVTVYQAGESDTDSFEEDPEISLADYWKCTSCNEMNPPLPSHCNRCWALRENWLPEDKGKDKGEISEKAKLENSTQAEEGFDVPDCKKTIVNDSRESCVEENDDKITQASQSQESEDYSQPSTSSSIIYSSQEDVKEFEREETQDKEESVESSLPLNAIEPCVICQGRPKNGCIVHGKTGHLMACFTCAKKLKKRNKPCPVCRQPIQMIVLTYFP
# Beta-galactosidase = Beta-galactosidase (Escherichia coli, UniProt Q8VNN2); test: PubChem AID 485352; assay type: functional
# Beta-galactosidase, sequence (Q8VNN2 whole entry): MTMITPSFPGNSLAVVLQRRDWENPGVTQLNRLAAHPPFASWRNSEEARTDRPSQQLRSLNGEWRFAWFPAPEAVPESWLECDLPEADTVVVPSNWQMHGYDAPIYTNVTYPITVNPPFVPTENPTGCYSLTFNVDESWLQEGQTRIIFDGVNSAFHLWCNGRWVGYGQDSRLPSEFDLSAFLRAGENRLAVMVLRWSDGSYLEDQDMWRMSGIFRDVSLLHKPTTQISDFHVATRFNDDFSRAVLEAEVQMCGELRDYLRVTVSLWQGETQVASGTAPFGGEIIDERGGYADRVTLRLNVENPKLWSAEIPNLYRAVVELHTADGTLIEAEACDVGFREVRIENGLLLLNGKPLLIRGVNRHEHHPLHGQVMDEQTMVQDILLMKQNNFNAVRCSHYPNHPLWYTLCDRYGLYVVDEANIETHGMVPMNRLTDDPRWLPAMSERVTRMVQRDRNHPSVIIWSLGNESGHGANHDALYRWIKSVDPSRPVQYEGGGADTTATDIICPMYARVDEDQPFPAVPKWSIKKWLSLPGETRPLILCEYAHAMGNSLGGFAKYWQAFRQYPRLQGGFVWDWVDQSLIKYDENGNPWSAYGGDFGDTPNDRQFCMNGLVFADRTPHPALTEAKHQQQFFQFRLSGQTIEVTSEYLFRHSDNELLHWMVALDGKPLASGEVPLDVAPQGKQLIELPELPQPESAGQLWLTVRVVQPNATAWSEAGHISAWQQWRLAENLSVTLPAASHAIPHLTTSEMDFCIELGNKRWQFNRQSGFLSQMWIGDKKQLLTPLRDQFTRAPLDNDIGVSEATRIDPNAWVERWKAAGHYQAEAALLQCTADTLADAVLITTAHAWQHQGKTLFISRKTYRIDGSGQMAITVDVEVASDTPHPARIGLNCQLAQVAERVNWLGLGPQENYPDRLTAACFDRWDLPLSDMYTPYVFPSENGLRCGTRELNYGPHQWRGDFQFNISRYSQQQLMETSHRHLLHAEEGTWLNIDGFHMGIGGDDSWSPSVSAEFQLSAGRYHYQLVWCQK
# [21] = HEK-293T viability loss, compound-treated – cell-based, uHTS hits, cytotoxicity control for B/T-cell NF-kB inhibitor project, dose response (AID 489019); assay type: functional;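 further: IC50 reflects cytotoxicity as loss of cell viability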
# Paired box protein Pax-8 = Paired box protein Pax-8 (Homo sapiens, UniProt Q06710); test: PAX8 transcriptional activity inhibition in RMG-I – RMG-I cells, luciferase, cherry-pick, dose response (AID 687027); assay type: functional, cell-based;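 further: luciferase reporter driven by Pax8 target thyroperoxidase promoter measured by SteadyGlo luminescence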
# Paired box protein Pax-8, sequence (Q06710 whole entry): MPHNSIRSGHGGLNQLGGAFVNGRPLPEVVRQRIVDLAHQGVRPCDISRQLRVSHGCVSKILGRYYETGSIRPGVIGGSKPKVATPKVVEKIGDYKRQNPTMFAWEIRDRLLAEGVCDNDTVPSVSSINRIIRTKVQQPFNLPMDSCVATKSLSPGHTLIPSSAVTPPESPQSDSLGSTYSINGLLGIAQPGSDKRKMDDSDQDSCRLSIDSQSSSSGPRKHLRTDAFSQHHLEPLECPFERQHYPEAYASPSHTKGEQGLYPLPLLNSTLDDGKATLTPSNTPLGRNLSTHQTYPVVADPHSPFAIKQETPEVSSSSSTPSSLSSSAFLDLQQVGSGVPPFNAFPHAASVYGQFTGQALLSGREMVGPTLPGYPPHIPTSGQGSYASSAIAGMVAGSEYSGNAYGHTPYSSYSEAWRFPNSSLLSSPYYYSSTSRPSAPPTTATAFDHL
# HEK293 [22] = test: cells; conditions: Homo sapiens
# [23] = viability of HCT116 lacking mutant beta-catenin – cell-based, human colon tumor, dose response (AID 1045); assay type: functional;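 further: HCT116 colon tumor cells with beta catenin knocked out; cells exposed to compound for 60 hours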
# HEK293 [24] = test: cells; conditions: Homo sapiens; remark: listed apart in the source
# [25] = viability of PTEN-deleted HCT116 cells – cell-based, HCT116 PTEN knockout, dose response (AID 1047); assay type: functional;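 further: HCT116 colon tumor cells with PTEN knocked out; cells exposed to compound for 60 hours before readout; potency for loss of cell viability measured by luminescence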
compound,measurement,setting,value
O=C(Oc1c(Cl)cc(Cl)c2cccnc12)c1cccs1,EC50,[1],9.43 µM (active)
same,EC50,[2],> 180 µM (inactive)
same,EC50,[3],27.3 µM (active)
same,AC50,INS1,8.83 µM (active)
same,EC50,Streptococcus,1.27 µM (active)
same,EC50,[4],16 µM (active)
same,EC50,[5],1.47 µM (active)
same,EC50,[6],> 285 µM (inactive)
same,CC50,[7],17.3 µM (active)
same,EC50,[8],2.41 µM (active)
same,CC50,Vero,16.5 µM (active)
same,EC50,[9],0.122 µM (active)
same,AC50,[10],3.28 µM (active)
Cn1nc(-c2ccccc2)c2nc3ccccc3nc21,AC50,HeLa,44.5 µM (active)
same,EC50,[11],> 99 µM (inactive)
same,AC50,ORF 73,42.5 µM (active)
same,EC50,[12],> 99 µM (inactive)
same,AC50,[13],11.3 µM (active)
same,AC50,Keap1/Nrf2,14 µM (active)
CC(C)(C)c1ccc(-c2noc(CCC(=O)NC3CCCCC3)n2)cc1,IC50,Jurkat [14],19.9 µM (active)
same,IC50,HEK293 [15],> 80 µM (inactive)
same,IC50,HEK293 [16],2.68 µM (active)
C=C1C(=O)O[C@@H]2C[C@@H](C)[C@@H]3C=CC(=O)[C@@]3(C)[C@@H](OC(C)=O)[C@H]12 [ANGUSTIBALIN],IC50,Jurkat [17],0.99 µM (active)
same,IC50,[18],4.49 µM (active)
same,AC50,INS1,2.13 µM (active)
same,IC50,[19],22 µM (not active)
same,EC50,[20],7.68 µM (not active)
same,EC50,Beta-galactosidase,> 40 µM (inactive)
same,IC50,[21],> 80 µM (inactive)
same,AC50,Paired box protein Pax-8,0.742 µM (active)
CC1=CC(C)(C)Nc2ccc(OC(=O)CCN3C(=O)c4ccccc4C3=O)cc21,EC50,HEK293 [22],> 59.6 µM (inactive)
same,EC50,[23],6.3 µM (active)
same,EC50,HEK293 [24],> 59.6 µM (inactive)
same,EC50,[25],10.8 µM (active)
